Laboratory results taken from ChEMBL document CHEMBL1201862, “PubChem BioAssay data set” (2004).
Calls of active or inactive are those of the source.

Legend:
[1] = Luminescence Cell-Based Dose Retest to Confirm Inhibitors of Cancer Stem Cells. [Related pubchem assays (depositor defined):AID2717, AID2721]; assay type: functional; settings: Homo sapiens
[2] = target: Heat shock protein HSP 90-alpha (Homo sapiens, UniProt P07900); assay type: functional, organism-based
[3] = test system: HeLa; experiment: ATP-based viability loss in HeLa cells – cell-based, CellTiter-Glo luminescence, cherry-pick samples, cytotoxicity control for MITF activator project, dose response (AID 540259); assay type: functional; settings: Homo sapiens
[4] = target: T1, Oxysterols receptor LXR-beta (Homo sapiens, UniProt P55055); assay type: functional, cell-based;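 also: agonist activity at LXR measured by a cell-based luminescence readout across a dose range, run as a counterscreen for daf-12 agonists; HEK293 cells with Gal4-LXR fusion and GAL4-driven luciferase reporter; potency for activation of Gal4-LXR reporter so compounds are agonists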
T1 sequence (P55055 whole entry): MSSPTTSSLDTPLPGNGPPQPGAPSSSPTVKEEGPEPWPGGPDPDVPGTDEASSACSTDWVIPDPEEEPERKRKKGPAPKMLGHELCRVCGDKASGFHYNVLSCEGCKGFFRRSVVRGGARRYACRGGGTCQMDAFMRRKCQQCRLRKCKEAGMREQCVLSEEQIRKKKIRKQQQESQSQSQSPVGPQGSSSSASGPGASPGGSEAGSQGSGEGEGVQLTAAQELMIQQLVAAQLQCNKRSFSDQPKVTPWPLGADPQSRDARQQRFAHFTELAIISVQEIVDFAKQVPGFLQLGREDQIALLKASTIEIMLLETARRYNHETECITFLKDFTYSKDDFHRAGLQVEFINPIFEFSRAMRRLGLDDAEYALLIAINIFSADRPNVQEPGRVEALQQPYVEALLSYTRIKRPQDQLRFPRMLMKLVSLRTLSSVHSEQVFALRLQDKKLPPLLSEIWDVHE

[5] = test system: Vero; experiment: cells; assay type: functional; settings: Chlorocebus sabaeus
[6] = HEK-293T cell viability reduction – luminescence, B-cell screen hits, cytotoxicity control for BCR NF-kB inhibitor project, dose response (AID 489021); assay type: functional, cell-based;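 also: HEK-293T cells carrying an NF-kB luciferase reporter; cells exposed to compound for about 14 hours before viability readout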
[7] = target: T2, High affinity choline transporter 1 (Homo sapiens, UniProt Q9GZV3); experiment: human choline transporter blockers, potency – cell-based, 5-point CRC, membrane potential dye, dose response (AID 504840); assay type: functional
T2 sequence (Q9GZV3 whole entry): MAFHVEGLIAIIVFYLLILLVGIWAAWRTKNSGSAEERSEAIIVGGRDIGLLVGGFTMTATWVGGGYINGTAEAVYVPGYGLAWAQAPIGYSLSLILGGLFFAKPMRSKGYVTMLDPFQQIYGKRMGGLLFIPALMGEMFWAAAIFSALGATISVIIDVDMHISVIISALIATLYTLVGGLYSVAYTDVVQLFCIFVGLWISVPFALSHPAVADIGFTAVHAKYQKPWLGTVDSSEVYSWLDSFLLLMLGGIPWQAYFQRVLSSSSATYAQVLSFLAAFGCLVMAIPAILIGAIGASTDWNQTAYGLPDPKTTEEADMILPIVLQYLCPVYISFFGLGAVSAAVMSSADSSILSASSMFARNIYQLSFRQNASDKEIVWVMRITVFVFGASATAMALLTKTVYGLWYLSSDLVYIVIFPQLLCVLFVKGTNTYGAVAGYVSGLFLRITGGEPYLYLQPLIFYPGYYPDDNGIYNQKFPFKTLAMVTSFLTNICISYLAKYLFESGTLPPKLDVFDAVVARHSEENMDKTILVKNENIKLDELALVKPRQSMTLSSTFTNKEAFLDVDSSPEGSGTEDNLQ

[8] = test system: H4; experiment: Luminescence Cell-Based Dose Response HTS to Identify Activators of 5'UTR Stem-Loop Driven Prion Protein mRNA Translation in H4 Neuroglioblastoma Cells. [Related pubchem assays: 1829 (Project Summary), 1814 (Primary HTS)]; assay type: functional; settings: Homo sapiens
[9] = cells; assay type: functional, cell-based
[10] = cells; assay type: functional, cell-based; remark: listed apart in the source
[11] = test system: BJ; experiment: BJ-TERT fibroblast viability loss – cell-based, RAS-independent, luminescence, dose response (AID 1933); assay type: functional; settings: Homo sapiens
[12] = test system: BJ; experiment: cells; assay type: functional, cell-based; settings: Homo sapiens
[13] = test system: BJ; experiment: BJ-TERT-LT-ST fibroblast viability loss – cell-based, RAS-independent, luminescence, dose response (AID 1935); assay type: functional; settings: Homo sapiens;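 also: BJ fibroblasts immortalized with TERT plus LT and ST oncogenes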
[14] = DRD fibroblast viability loss – cell-based, non-viral oncogenic, luminescence, dose response (AID 1934); assay type: functional; settings: Homo sapiens
[15] = target: Glucose-6-phosphate 1-dehydrogenase (Homo sapiens, UniProt P11413); experiment: inhibition of Homo sapiens G6PD, dose series – biochemical, fluorescence, selectivity assay for P. falciparum G6PD inhibitor project, dose response (AID 504792); assay type: functional
Sequence of Glucose-6-phosphate 1-dehydrogenase (P11413 whole entry): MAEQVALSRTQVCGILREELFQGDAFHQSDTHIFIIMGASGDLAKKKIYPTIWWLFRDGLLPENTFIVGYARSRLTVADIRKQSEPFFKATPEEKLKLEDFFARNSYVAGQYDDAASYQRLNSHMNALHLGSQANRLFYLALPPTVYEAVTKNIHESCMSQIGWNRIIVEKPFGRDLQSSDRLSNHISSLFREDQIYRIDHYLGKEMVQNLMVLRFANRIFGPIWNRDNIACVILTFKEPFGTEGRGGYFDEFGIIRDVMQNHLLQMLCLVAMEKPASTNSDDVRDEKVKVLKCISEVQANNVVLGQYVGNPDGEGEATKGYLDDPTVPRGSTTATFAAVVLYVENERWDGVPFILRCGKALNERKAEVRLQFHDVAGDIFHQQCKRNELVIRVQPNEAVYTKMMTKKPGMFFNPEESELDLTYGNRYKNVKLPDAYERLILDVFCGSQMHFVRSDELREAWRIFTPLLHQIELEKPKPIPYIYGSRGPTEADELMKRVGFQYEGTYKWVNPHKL

[16] = target: Genome polyprotein (dengue virus type 2, UniProt P29990); experiment: flavivirus cap methylation enzyme inhibition – biochemical, confirmation dose response, primary screen (AID 588689); assay type: functional
Sequence of Genome polyprotein (P29990 2492-3391 limits assumed): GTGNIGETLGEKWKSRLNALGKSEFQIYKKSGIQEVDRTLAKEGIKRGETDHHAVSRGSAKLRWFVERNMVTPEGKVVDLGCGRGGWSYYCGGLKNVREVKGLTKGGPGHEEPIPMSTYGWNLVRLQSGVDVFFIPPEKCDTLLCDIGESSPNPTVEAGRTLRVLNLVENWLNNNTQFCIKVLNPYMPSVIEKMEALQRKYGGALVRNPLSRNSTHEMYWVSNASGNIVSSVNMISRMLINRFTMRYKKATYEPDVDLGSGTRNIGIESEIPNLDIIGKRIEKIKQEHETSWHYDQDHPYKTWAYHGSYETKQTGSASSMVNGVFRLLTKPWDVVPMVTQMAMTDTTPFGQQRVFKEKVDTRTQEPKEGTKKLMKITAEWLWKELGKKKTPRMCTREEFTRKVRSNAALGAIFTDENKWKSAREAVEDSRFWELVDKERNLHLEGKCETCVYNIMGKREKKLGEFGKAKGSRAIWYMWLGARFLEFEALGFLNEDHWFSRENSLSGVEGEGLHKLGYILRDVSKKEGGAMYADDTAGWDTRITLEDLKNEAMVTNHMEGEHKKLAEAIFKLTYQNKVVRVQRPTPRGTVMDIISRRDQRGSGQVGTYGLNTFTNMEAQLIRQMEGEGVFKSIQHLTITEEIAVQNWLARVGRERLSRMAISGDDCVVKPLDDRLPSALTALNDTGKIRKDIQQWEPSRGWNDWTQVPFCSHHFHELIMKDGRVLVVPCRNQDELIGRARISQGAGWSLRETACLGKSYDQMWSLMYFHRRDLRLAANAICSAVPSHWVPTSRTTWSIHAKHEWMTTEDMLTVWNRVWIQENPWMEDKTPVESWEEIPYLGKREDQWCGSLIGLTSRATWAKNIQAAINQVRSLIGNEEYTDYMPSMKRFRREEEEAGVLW

[17] = target: T3, CAAX prenyl protease 2 (Saccharomyces cerevisiae S288c, UniProt Q03530); assay type: biochemical
T3 sequence (Q03530 whole entry): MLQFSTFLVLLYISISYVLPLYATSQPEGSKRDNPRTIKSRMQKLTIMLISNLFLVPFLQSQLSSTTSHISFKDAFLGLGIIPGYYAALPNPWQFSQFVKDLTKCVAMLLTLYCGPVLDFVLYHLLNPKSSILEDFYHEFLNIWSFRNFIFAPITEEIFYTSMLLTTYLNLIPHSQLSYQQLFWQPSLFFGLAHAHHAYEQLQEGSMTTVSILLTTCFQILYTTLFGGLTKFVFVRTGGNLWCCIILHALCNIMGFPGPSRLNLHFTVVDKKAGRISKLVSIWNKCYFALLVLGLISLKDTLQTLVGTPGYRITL

[18] = target: T4, Carboxy-terminal domain RNA polymerase II polypeptide A small phosphatase 1 (Homo sapiens, UniProt Q9GZU7); experiment: CTDSP1 inhibitors, concentration-response, biochemical, absorbance readout, ultra-high-throughput screen actives (AID 540297); assay type: functional
T4 sequence (Q9GZU7 whole entry): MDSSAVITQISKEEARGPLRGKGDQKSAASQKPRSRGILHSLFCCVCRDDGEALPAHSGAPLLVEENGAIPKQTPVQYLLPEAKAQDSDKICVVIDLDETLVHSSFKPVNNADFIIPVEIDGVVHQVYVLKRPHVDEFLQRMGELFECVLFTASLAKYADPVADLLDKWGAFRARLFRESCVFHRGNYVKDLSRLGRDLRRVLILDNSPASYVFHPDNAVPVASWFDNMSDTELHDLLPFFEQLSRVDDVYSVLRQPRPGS

[19] = target: T5, Apoptotic protease-activating factor 1 (Homo sapiens, UniProt O14727); assay type: functional
T5 sequence (O14727 whole entry): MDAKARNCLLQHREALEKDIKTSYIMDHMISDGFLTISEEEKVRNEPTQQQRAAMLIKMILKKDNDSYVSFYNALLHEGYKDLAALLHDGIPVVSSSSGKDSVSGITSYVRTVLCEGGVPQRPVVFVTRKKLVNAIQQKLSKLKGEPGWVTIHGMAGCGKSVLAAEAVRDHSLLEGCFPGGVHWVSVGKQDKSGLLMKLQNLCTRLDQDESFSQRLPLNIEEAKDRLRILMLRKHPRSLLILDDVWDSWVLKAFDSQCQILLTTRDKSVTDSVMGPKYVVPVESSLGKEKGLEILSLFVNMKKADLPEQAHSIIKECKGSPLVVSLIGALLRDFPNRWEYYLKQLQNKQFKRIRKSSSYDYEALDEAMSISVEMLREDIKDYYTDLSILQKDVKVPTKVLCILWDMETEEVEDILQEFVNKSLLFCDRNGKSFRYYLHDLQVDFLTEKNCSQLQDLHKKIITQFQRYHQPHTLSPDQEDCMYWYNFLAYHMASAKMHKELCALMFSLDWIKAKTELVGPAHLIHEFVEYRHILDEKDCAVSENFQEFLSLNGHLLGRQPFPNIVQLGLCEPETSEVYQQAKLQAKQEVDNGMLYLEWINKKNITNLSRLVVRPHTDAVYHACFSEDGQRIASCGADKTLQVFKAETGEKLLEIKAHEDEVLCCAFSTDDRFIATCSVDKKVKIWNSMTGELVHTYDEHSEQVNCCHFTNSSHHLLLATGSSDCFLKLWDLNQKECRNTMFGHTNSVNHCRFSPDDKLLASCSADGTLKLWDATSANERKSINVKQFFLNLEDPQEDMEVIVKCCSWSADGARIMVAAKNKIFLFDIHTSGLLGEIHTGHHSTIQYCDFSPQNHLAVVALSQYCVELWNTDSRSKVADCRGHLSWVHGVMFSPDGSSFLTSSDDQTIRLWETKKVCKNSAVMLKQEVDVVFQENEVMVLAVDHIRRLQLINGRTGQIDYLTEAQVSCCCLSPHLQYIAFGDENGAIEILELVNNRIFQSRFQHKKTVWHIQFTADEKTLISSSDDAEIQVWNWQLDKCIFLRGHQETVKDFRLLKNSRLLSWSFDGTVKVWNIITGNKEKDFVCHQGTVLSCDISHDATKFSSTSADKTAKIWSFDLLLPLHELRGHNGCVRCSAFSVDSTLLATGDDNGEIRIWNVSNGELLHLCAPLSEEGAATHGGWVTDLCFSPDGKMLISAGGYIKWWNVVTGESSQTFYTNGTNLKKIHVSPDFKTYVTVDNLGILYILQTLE

With Cc1ccc(N=Nc2ccc(O)cc2)c(Br)c1 the AC50 [1] was 6.26 µM (active), the AC50 [2] was 7.83 µM (active) and the AC50 [3] was 39.2 µM (active). For the same compound, the EC50 [4] was > 67.5 µM (inactive).

In the case of CCN(Cc1ccccc1)S(=O)(=O)c1ccc(C(=O)N(CCCN(C)C)c2nc3ccc(F)cc3s2)cc1, the CC50 [5] is reported as > 25 µM (active).

For CCn1c(=O)c2cc(C(=O)NC(C)C)sc2c2ccccc21, the IC50 [6] was 27.6 µM (inactive).

In the case of CCCCc1ccc(NC(S)=NCC2CCCO2)cc1 (configuration not stated), the IC50 [7] is reported as 15.8 µM (active).

With O=C(CCCc1ccccc1)NC12CC3CC(CC(C3)C1)C2 the EC50 [8] was > 120 µM (not active) and the EC50 [4] was > 67.5 µM (inactive).

In the case of Cc1cc(N/C=C/C(=O)c2ccc(Br)cc2)no1, the EC50 [9] is reported as > 350 µM (not active) and the EC50 [10] is reported as 59.3 µM (active).

For C#CCN(Cc1ccccc1)S(=O)(=O)C=C, the IC50 [6] was > 80 µM (inactive).

With CCOc1cc2nc(-c3ccc(OC)c(OC)c3)nc(N3CCOCC3)c2cc1OC the IC50 [6] was > 80 µM (inactive).

With Cc1ccc(CSc2nnc(CCCCCNC(=O)OC(C)(C)C)o2)cc1 the EC50 [9] was > 350 µM (not active) and the EC50 [10] was > 350 µM (not active).

With COc1ccc(/C=N/n2cnc3c4cc(F)ccc4nc-3c2O)cc1CN1CCCC1 the EC50 [11] was 5.03 µM (inconclusive), the EC50 [12] was 9.17 µM (inconclusive) and the EC50 [13] was 4.92 µM (active). The EC50 [14] was 5.47 µM (inconclusive).

For CCCCCCN1C[C@@H](n2cc(COC(=O)c3ccccc3)nn2)[C@H](O)C[C@@H]1c1ccc(C)cc1, the CC50 [5] was > 25 µM (active).

For O=C(/C=C/c1ccccc1)NCCc1nc2ccccc2[nH]1, the EC50 [9] was > 350 µM (not active) and the EC50 [10] was > 350 µM (not active).

In the case of O=C(O)C(Cc1ccccc1)N1C(=O)C=CC1=O (configuration not stated), the IC50 [15] is reported as > 80 µM (inactive) and the IC50 [16] is reported as > 100 µM (active).

With Cc1ccc(-n2ncc3ccccc3c2=O)cc1Cl the EC50 [4] was > 67.6 µM (inactive).

In the case of O=C(C1=NN[C@@H]2C(=O)N(c3cccc(C(F)(F)F)c3)C(=O)[C@H]12)C(c1ccccc1)c1ccccc1, the EC50 [9] is reported as > 350 µM (not active) and the EC50 [10] is reported as > 350 µM (not active).

With CC(C)N1CCN(Cc2ccc(OCc3ccccc3)cc2)CC1CCO (configuration not stated) the AC50 [1] was 3.36 µM (active) and the AC50 [17] was 72.9 µM (active).

For Sc1nc2c[nH]c(S)nc-2n1, the IC50 [15] was > 80 µM (inactive).

With CCOc1ccc(/C=C2\SC(=S)N(CCC(=O)Nc3ccc(C(=O)O)cc3)C2=O)cc1 the IC50 [6] was > 80 µM (inactive) and the IC50 [18] was 1.88 µM (active).

In the case of CN(C)c1ccc(N=Nc2nccs2)cc1, the EC50 [4] is reported as > 67.4 µM (inactive).

With Fc1ccc(-c2nc3c(-c4ccccc4)cnn3cc2CCN2CCOCC2)cc1 the IC50 [7] was 13.2 µM (active).

For Cc1cc(C)c(S(=O)(=O)/N=C2\C=C(NS(=O)(=O)c3ccccc3)C(=O)c3ccccc32)c(C)c1, the IC50 [19] was 31.1 µM (active).

For CN1CCN(C(=O)c2ccc(-c3cccs3)s2)CC1, the AC50 [17] was 32.5 µM (active).

For CCOC(=O)c1c(-c2ccc(C)cc2C)csc1NC(=O)CSc1nnnn1C, the CC50 [5] was 23.2 µM (active).
